Measurements from the supplement of paper PMC8967900.

Legend:
Assay in all cases: selective drug sensitivity score (sDSS, relative to normal bone marrow) (sDSS (score)); higher = more potent and effective on the cell line relative to normal bone marrow cells
Conditions in all cases: 72 h
[1] = test system: 380
[2] = test system: 697
[3] = test system: ALL-SIL
[4] = test system: CCRF-CEM
[5] = test system: COG-LL-317
[6] = test system: COG-LL-355h
[7] = test system: KARPAS-45
[8] = test system: KASUMI-9
[9] = test system: LC4-1
[10] = test system: MHH-CALL-2
[11] = test system: MHH-CALL-3
[12] = test system: MOLT-14
[13] = test system: MOLT-16
[14] = test system: MOLT-4
[15] = test system: NALM-16
[16] = test system: RCH-ACV
[17] = test system: RPMI-8402
[18] = test system: SEM cells
[19] = test system: SUP-B15
[20] = test system: TANOUE
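Also: ALL cell lines in 384-well plates, five doses spanning 10,000-fold, each plate scaled between vehicle and 100 µmol/L benzalkonium chloride controls, sDSS an adapted area-under-curve metric.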

Row | SMILES | selective drug sensitivity score [1] | selective drug sensitivity score [2] | selective drug sensitivity score [3] | selective drug sensitivity score [4] | selective drug sensitivity score [5] | selective drug sensitivity score [6] | selective drug sensitivity score [7] | selective drug sensitivity score [8] | selective drug sensitivity score [9] | selective drug sensitivity score [10] | selective drug sensitivity score [11] | selective drug sensitivity score [12] | selective drug sensitivity score [13] | selective drug sensitivity score [14] | selective drug sensitivity score [15] | selective drug sensitivity score [16] | selective drug sensitivity score [17] | selective drug sensitivity score [18] | selective drug sensitivity score [19] | selective drug sensitivity score [20]
1 | CNC(=O)[C@@H](NC(=O)[C@H](CC(C)C)[C@H](O)C(=O)NO)C(C)(C)C [Marimastat] (top concentration 10000 nM) | -1.28 | -0.68 | -1.28 | -0.48 | -1.28 | -1.28 | 3.32 | -1.28 | -1.28 | 9.42 | -1.28 | 2.92 | 2.82 | 0.62 | 4.22 | 2.02 | -0.68 | -1.08 | 4.52 | -1.28
2 | C[C@H]1C[C@@H](n2c(Nc3ccc(OC(F)(F)F)cc3)nc3cc(CCC(=O)O)ccc32)CC(C)(C)C1 (top concentration 10000 nM) | -0.14 | -0.14 | 1.06 | 1.56 | 2.56 | 2.16 | 2.76 | 0.66 | 0.76 | 0.96 | -0.14 | 2.96 | 5.66 | 3.06 | -0.14 | -0.14 | 1.46 | 0.16 | 2.16 | -0.14
3 | CC[C@H](CO)Nc1nc(NCc2ccccc2)c2ncn(C(C)C)c2n1 [Seliciclib] (top concentration 10000 nM) | -1.04 | 1.16 | 3.06 | 2.06 | 3.56 | 2.46 | 1.96 | -0.44 | 1.06 | 1.26 | -1.04 | -1.04 | 0.26 | -1.04 | -1.04 | 2.16 | -0.54 | -0.04 | 3.26 | -1.04
4 | Cc1ccc(-n2nc(C(C)(C)C)cc2NC(=O)Nc2ccc(OCCN3CCOCC3)c3ccccc23)cc1 [Doramapimod] (top concentration 10000 nM) | -0.24 | 4.96 | -0.24 | -0.24 | 10.9 | 1.26 | -0.24 | 4.56 | 1.76 | 4.56 | -0.24 | -0.24 | 4.16 | 2.46 | 7.06 | 4.56 | 1.96 | 1.06 | 5.16 | 1.16
5 | O=c1ncn2nc(Sc3ccc(F)cc3F)ccc2c1-c1c(Cl)cccc1Cl [Neflamapimod] (top concentration 10000 nM) | 4.7 | 2.9 | 1.3 | 0 | 1.7 | 2.2 | 0.1 | 3.1 | 0.9 | 1.8 | 0 | 0 | 2.1 | 0 | 0 | 6.7 | 2.1 | 1.5 | 0.5 | 1.4
6 | COc1cc2c(Nc3ccc(Cl)c(Cl)c3F)ncnc2cc1OC[C@@H]1C[C@@H]2CN(C)C[C@@H]2C1 [Tesevatinib] (top concentration 1000 nM) | -0.96 | -0.66 | -0.26 | 1.34 | 0.04 | 2.04 | 0.74 | 0.74 | -1.16 | 1.44 | 3.64 | -0.56 | 1.74 | -0.86 | -1.36 | 0.64 | 0.44 | 1.44 | -1.36 | -1.36
7 | CCCCNc1ncc(C(=O)NCc2ccc(-n3ccnc3)cc2)c(NC2CCC(O)CC2)n1 (stereo not given) [UNC2881] (top concentration 2500 nM) | 0 | 1 | 2.8 | 0 | 0.6 | 0 | 0.5 | 0 | 0 | 0 | 0 | 0 | 0.2 | 0.4 | 0 | 0.4 | 0 | 6.3 | 3.9 | 0
8 | CN1C(=O)N[C@H](Cc2c[nH]c3c(Cl)cccc23)C1=O [Necrostatin_2] (top concentration 10000 nM) | -0.08 | -0.08 | -0.08 | -0.08 | -0.08 | -0.08 | -0.08 | -0.08 | -0.08 | -0.08 | -0.08 | -0.08 | -0.08 | -0.08 | -0.08 | -0.08 | -0.08 | -0.08 | -0.08 | -0.08
9 | O=C(O)CCCCC(CCSCc1ccccc1)SCc1ccccc1 (stereo not given) [Devimistat (CPI-613)] (top concentration 10000 nM) | 1.9 | 0 | 0 | 0 | 0 | 2.4 | 0 | 0 | 2.1 | 0.8 | 1 | 0 | 0 | 0 | 0.4 | 0 | 0 | 0.6 | 0 | 1.8
10 | COc1cc2c(NC3CCN(C(C)C)CC3)nc(C3CCCCC3)nc2cc1OCCCN1CCCC1 [UNC0638] (top concentration 10000 nM) | 0.06 | -0.84 | 2.16 | 0.46 | 0.06 | 1.86 | 2.36 | -1.64 | -2.84 | -2.84 | 0.86 | -0.94 | -1.04 | -3.74 | -3.04 | 0.66 | -0.04 | -2.94 | -1.04 | -5.14
11 | Nc1nc(Nc2ccc3c(c2)CC[C@@H](N2CCCC2)CC3)nn1-c1cc2c(nn1)-c1ccccc1CCC2 [BGB324] (top concentration 10000 nM) | -0.88 | 3.52 | 3.12 | 1.92 | -0.38 | 3.82 | 1.92 | 5.22 | 1.52 | -1.58 | -0.98 | 1.62 | 2.92 | 3.22 | -1.58 | 5.02 | 2.92 | 5.72 | 3.02 | -3.88
12 | Cc1ccc(-c2cc(C(F)(F)F)nn2-c2ccc(S(N)(=O)=O)cc2)cc1 [Celecoxib] (top concentration 10000 nM) | 7.74 | -0.06 | 0.54 | -0.06 | -0.06 | -0.06 | 0.34 | -0.06 | 1.24 | 0.34 | 5.24 | -0.06 | 0.34 | 0.14 | -0.06 | 0.64 | 0.54 | -0.06 | 2.44 | -0.06
13 | CC(=O)O[C@@]12CO[C@@H]1C[C@H](O)[C@@]1(C)C(=O)[C@H](O)C3=C(C)[C@@H](OC(=O)[C@H](O)[C@@H](NC(=O)OC(C)(C)C)c4ccccc4)C[C@@](O)([C@@H](OC(=O)c4ccccc4)[C@H]21)C3(C)C [Docetaxel] (top concentration 1000 nM) | 22.4 | 23.4 | 20.6 | 19.8 | 20.6 | 5.1 | 17.1 | 21 | 22.9 | 18.6 | 7.3 | 19.5 | 23.5 | 14.8 | 12.3 | 22.6 | 13.2 | 19.5 | 21.7 | -11.8
14 | CN1CC[C@@H](NC(=O)Nc2ccc(C#N)cc2)C[C@@H]1c1nc2ccccc2[nH]1 [Glasdegib] (top concentration 1000 nM) | 0 | 0 | 0.8 | 0 | 1.5 | 0 | 0 | 0 | 0 | 0 | 0.7 | 0 | 0 | 0 | 0 | 0 | 0 | 0 | 0 | 2.9
15 | O=C1CCC(N2C(=O)c3ccccc3C2=O)C(=O)N1 (stereo not given) [Thalidomide] (top concentration 10000 nM) | -0.14 | -0.14 | -0.14 | -0.14 | -0.14 | 0.16 | -0.14 | -0.14 | -0.14 | -0.14 | -0.14 | -0.14 | -0.14 | -0.14 | -0.14 | -0.14 | -0.14 | -0.14 | -0.14 | -0.14
16 | CCC1(c2ccc(N)cc2)CCC(=O)NC1=O (stereo not given) [Aminoglutethimide] (top concentration 10000 nM) | 0 | 0 | 0 | 0 | 0 | 0.6 | 0 | 0.6 | 0 | 2.4 | 0 | 0 | 0 | 0 | 0 | 0 | 0 | 0.3 | 0 | 0
17 | O=C(O)c1ccc(CN2CCC(CN[C@@H]3C[C@H]3c3ccccc3)CC2)cc1 (top concentration 100000 nM) | -0.62 | -0.42 | -0.62 | -0.02 | 6.48 | 0.58 | -0.32 | -0.62 | -0.02 | -0.02 | -0.62 | -0.62 | 0.28 | -0.62 | -0.62 | -0.62 | -0.22 | 0.28 | -0.52 | -0.62
18 | CCS(=O)(=O)N1CC(CC#N)(n2cc(-c3ncnc4[nH]ccc34)cn2)C1 [Baricitinib] (top concentration 2500 nM) | -1.94 | -1.94 | 4.66 | -1.94 | -1.94 | -1.94 | -1.94 | -1.94 | -1.94 | -1.94 | -1.94 | -1.94 | -1.94 | -1.94 | -1.94 | -1.94 | -1.94 | -1.94 | -1.94 | -1.94
